Data from the NIST ThermoML archive (doi:10.1016/j.jct.2018.06.015).

Test: xn = mol fraction of the nth substance listed
Conditions: 100 kPa, Liquid; for speed of sound: Frequency=3 MHz, Single path-length method; for mass density: Vibrating tube method

CCCCOCCOCCO [3,6-dioxa-1-decanol] + CCCCCCCCCCO
Conditions | mass density, 293.15 K [kg/m3] | mass density, 298.15 K [kg/m3] | mass density, 303.15 K [kg/m3] | mass density, 308.15 K [kg/m3] | mass density, 313.15 K [kg/m3] | speed of sound, 293.15 K [m/s] | speed of sound, 298.15 K [m/s] | speed of sound, 303.15 K [m/s] | speed of sound, 308.15 K [m/s] | speed of sound, 313.15 K [m/s]
x1 = 0.0523 | 835.331 | 831.923 | 828.507 | 825.069 | 821.625 | 1393.8 | 1376.5 | 1359.8 | 1343.3 | 1326.4
x1 = 0.102 | 840.692 | 837.244 | 833.786 | 830.318 | 826.838 | 1391.2 | 1374.1 | 1357.4 | 1340.8 | 1324
x1 = 0.1579 | 846.823 | 843.333 | 839.841 | 836.332 | 832.81 | 1388.7 | 1371.5 | 1354.9 | 1338.3 | 1321.7
x1 = 0.207 | 852.21 | 848.697 | 845.172 | 841.631 | 838.082 | 1386.6 | 1369.3 | 1352.7 | 1336 | 1319.7
x1 = 0.2513 | 857.155 | 853.609 | 850.057 | 846.484 | 842.906 | 1385 | 1367.4 | 1350.8 | 1334.1 | 1318
x1 = 0.3099 | 863.89 | 860.297 | 856.695 | 853.085 | 849.466 | 1382.7 | 1365.1 | 1348.6 | 1331.8 | 1315.9
x1 = 0.4046 | 875.017 | 871.358 | 867.688 | 864.011 | 860.317 | 1379.6 | 1362.3 | 1345.7 | 1328.8 | 1312.8
x1 = 0.5087 | 887.59 | 883.854 | 880.111 | 876.354 | 872.591 | 1376.9 | 1359.7 | 1343.1 | 1326 | 1310.2
x1 = 0.6073 | 899.873 | 896.063 | 892.242 | 888.409 | 884.574 | 1374.5 | 1358.4 | 1341.8 | 1324.7 | 1308.1
x1 = 0.7051 | 912.356 | 908.464 | 904.568 | 900.658 | 896.746 | 1373.9 | 1357.8 | 1341.3 | 1323.9 | 1307.1
x1 = 0.7952 | 924.132 | 920.17 | 916.202 | 912.22 | 908.239 | 1373.4 | 1357.9 | 1341.4 | 1323.9 | 1306.6
x1 = 0.8515 | 931.68 | 927.667 | 923.651 | 919.614 | 915.585 | 1373.4 | 1358.6 | 1342.2 | 1324.6 | 1306.5
x1 = 0.9006 | 938.376 | 934.318 | 930.252 | 926.171 | 922.107 | 1374.5 | 1359.6 | 1343.1 | 1325.4 | 1307.4
x1 = 0.9379 | 943.482 | 939.393 | 935.294 | 931.189 | 927.082 | 1374.9 | 1360.6 | 1344.1 | 1326.3 | 1307.7
x1 = 1 | 952.288 | 948.1 | 943.909 | 939.704 | 935.503 | 1378.2 | 1361.3 | 1344.5 | 1326.4 | 1307.7
